Active and inactive are the calls of the source. No cut-off for these calls is given here.
What was measured:
[1] = biological target: Transcriptional enhancer factor TEF-3 (Homo sapiens, UniProt Q15561); assay: Binding affinity to N-terminal His6 tagged human TEAD4-YBD (217 to 434 residues) expressed in Escherichia coli C43 (DE3) cells assessed as covalent modification by measuring change in protein mass by mass spectral analysis
Homo sapiens [2] = species: Homo sapiens; assay: Inhibition of TEAD (unknown origin) expresssed in HEK293T cells assessed as reduction in luciferase activity at 10 to 20 uM by dual-luciferase reporter gene assay; format: cell-based
Homo sapiens [3] = species: Homo sapiens; assay: Inhibition of human Ros V2262A mutant(1883 to end residues) at 10 uM using KKKSPGEYVNIEFG as substrate measured after 40 mins in presence of [gamma33P]ATP by scintillation counting method relative to control
Homo sapiens [4] = species: Homo sapiens; assay: Inhibition of full length recombinant human PRAK R291E mutant at 10 uM using KKLRRTLSVA as substrate after 40 mins in presence of [gamma33P]ATP by scintillation counting method relative to control
[5] = biological target: Insulin receptor (Homo sapiens) (UniProt P06213); assay: Inhibition of recombinant human IR activated (1005 to 1310 residues) at 10 uM using KKSRGDYMTMQIG as substrate after 40 mins in presence of [gamma33P]ATP by scintillation counting method relative to control
[6] = biological target: Rhodopsin kinase GRK1 (Homo sapiens) (UniProt Q15835); assay: Inhibition of full length recombinant human GRK1 at 10 uM using KKKKERLLDDRHDSGLDSMKDEE as substrate after 40 mins in presence of [gamma33P]ATP by scintillation counting method relative to control
[7] = test system: eIF-2-alpha kinase GCN2 (Homo sapiens), Q9P2K8 [E556G]; assay: Inhibition of full length recombinant human GCN2 E556G mutant at 10 uM using RSRSRSRSRSRSRSR as substrate after 40 mins in presence of [gamma33P]ATP by scintillation counting method relative to control
Homo sapiens [8] = species: Homo sapiens; assay: Inhibition of recombinant human Flt4 V1128L/H1146R mutant (800 to end residues) at 10 uM using GGEEEEYFELVKKKK as substrate measured after 40 mins in presence of [gamma33P]ATP by scintillation counting method relative to control
[9] = biological target: Protein kinase C beta type (Homo sapiens) (UniProt P05771); assay: Inhibition of recombinant human PKCbeta2 (2 to end residues) at 10 uM using histone H1 as substrate after 40 mins by in presence of [gamma33P]ATP by scintillation counting method relative to control
[10] = biological target: PI3-kinase p110-alpha/p85-alpha (Homo sapiens) (UniProt P27986+P42336); assay: Inhibition of full-length recombinant human PI3K (p110a/p85a) at 10 uM using phosphatidylinositol 4,5-bisphosphate as substrate after 40 mins by fluorescence based assay relative to control; format: protein-complex assay
[11] = biological target: Tyrosine-protein kinase Fes/Fps (Homo sapiens) (UniProt P07332); assay: Inhibition of recombinant human FES (2 to end residues) at 10 uM using poly(Glu, Tyr) 4:1 as substrate measured after 40 mins in presence of [gamma33P]ATP by scintillation counting method relative to control
[12] = biological target: Tyrosine-protein kinase CSK (Homo sapiens) (UniProt P41240); assay: Inhibition of recombinant full length human CSK at 10 uM using poly(Glu,Tyr) as substrate measured after 40 mins in presence of [gamma33P]ATP by scintillation counting method relative to control
[13] = biological target: Platelet-derived growth factor receptor beta (Homo sapiens) (UniProt P09619); assay: Inhibition of recombinant human PDGFRbeta (557 to end residues) at 10 uM using poly(Glu, Tyr) 4:1 as substrate measured after 40 mins in presence of [gamma33P]ATP by scintillation counting method relative to control
[14] = biological target: Serine/threonine-protein kinase PAK 1 (Homo sapiens) (UniProt Q13153); assay: Inhibition of recombinant human PAK1 (150 to end residues) at 10 uM using RRRLSFAEPG as substrate measured after 40 mins in presence of [gamma33P]ATP by scintillation counting method relative to control
[15] = biological target: NUAK family SNF1-like kinase 2 (Homo sapiens) (UniProt Q9H093); assay: Inhibition of recombinant human full length NUAK2 at 10 uM using KKKVSRSGLYRSPSMPENLNRPR as substrate incubated for 40 mins in presence of [gamma-33P]-ATP by scintillation counting method relative to control
[16] = biological target: CDK3/Cyclin E (Homo sapiens) (UniProt P24864+Q00526); assay: Inhibition of recombinant full-length human CDK3/cyclinE at 10 uM using histone H1 as substrate measured after 40 mins in presence of [gamma33P]ATP by scintillation counting method relative to control; format: protein-complex assay
[17] = biological target: CDC7/Cyclin B1 (Homo sapiens) (UniProt P14635+O00311); assay: Inhibition of full-length recombinant human Cdc7/CyclinB1 at 10 uM using histone H1 as substrate after 120 mins by in presence of [gamma33P]ATP by scintillation counting method relative to control; format: protein-complex assay
Homo sapiens [18] = species: Homo sapiens; assay: Inhibition of recombinant human Mer H628Q/R794A mutant (557 to 882 residues) at 10 uM using GGMEDIYFEFMGGKKK as substrate measured after 40 mins in presence of [gamma33P]ATP by scintillation counting method relative to control
[19] = biological target: Dual specificity mitogen-activated protein kinase kinase 1 (Homo sapiens) (UniProt Q02750); assay: Inhibition of recombinant full-length human MEK1 at 10 uM using unactive MAPK2 as substrate measured after 40 mins in presence of [gamma33P]ATP by scintillation counting method relative to control
[20] = biological target: 5'-AMP-activated protein kinase catalytic subunit alpha-2 (Homo sapiens) (UniProt P54646); assay: Inhibition of recombinant full length human AMPKalpha2 at 10 uM using AMARAASAAALARRR as substrate after 40 mins in presence of [gamma33P]ATP by scintillation counting method relative to control
[21] = biological target: ALK tyrosine kinase receptor (Homo sapiens) (UniProt Q9UM73); assay: Inhibition of recombinant human ALK (1058 to end residues) at 10 uM using KKKSPGEYVNIEF as substrate after 40 mins in presence of [gamma33P]ATP by scintillation counting method relative to control
[22] = biological target: Activin receptor type-2A (Homo sapiens) (UniProt P27037); assay: Inhibition of recombinant human ACTR2 (162 to end residues) at 10 uM using casein as substrate after 120 mins in presence of [gamma33P]ATP by scintillation counting method relative to control
[23] = biological target: Wee1-like protein kinase (Homo sapiens) (UniProt P30291); assay: Inhibition of recombinant human Wee1 (214 to end residues) at 10 uM using LSNLYHQGKFLQTFCGSPLYRRR as substrate measured after 40 mins in presence of [gamm33P]ATP by scintillation counting method relative to control
[24] = biological target: Bromodomain-containing protein 4 (Homo sapiens) (UniProt O60885); assay: Inhibition of human BRD4-BD1 at 10 uM relative to control

Chain of CDK3/Cyclin E (Homo sapiens) (P24864 whole entry, looked up): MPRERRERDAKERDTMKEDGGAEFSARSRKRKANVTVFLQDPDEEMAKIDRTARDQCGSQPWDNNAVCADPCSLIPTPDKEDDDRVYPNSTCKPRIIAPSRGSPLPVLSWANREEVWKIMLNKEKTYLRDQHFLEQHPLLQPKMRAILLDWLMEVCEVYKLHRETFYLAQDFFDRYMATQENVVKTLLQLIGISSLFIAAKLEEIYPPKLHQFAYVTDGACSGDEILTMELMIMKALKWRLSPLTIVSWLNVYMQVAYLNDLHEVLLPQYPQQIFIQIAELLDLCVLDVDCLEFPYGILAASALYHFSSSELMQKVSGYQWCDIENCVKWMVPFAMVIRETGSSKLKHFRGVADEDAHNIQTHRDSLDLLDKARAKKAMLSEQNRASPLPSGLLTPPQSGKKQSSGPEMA
Chain of CDK3/Cyclin E (Homo sapiens) (Q00526 whole entry, looked up): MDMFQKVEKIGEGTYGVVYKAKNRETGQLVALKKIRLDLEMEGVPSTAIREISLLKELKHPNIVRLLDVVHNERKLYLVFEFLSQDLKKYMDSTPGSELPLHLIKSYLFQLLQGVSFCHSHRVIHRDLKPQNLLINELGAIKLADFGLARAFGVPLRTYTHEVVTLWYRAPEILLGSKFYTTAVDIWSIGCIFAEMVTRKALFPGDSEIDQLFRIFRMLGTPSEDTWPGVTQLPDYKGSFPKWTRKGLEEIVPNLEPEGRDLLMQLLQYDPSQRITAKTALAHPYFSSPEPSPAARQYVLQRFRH
Chain of Transcriptional enhancer factor TEF-3 (Q15561 whole entry, the tested form may be a part): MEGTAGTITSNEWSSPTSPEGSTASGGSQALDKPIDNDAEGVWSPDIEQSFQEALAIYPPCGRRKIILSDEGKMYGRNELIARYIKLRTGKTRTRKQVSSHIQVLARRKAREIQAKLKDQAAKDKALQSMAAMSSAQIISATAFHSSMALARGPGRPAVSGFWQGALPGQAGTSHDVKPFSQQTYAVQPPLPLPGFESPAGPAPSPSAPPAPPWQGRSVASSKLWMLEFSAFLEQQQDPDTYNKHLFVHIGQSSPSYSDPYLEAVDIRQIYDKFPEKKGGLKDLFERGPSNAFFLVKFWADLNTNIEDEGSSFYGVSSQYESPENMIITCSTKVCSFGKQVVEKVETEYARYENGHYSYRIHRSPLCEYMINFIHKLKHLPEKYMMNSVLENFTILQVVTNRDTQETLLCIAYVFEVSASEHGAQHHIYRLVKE
Chain of Wee1-like protein kinase (Homo sapiens) (P30291 whole entry, looked up): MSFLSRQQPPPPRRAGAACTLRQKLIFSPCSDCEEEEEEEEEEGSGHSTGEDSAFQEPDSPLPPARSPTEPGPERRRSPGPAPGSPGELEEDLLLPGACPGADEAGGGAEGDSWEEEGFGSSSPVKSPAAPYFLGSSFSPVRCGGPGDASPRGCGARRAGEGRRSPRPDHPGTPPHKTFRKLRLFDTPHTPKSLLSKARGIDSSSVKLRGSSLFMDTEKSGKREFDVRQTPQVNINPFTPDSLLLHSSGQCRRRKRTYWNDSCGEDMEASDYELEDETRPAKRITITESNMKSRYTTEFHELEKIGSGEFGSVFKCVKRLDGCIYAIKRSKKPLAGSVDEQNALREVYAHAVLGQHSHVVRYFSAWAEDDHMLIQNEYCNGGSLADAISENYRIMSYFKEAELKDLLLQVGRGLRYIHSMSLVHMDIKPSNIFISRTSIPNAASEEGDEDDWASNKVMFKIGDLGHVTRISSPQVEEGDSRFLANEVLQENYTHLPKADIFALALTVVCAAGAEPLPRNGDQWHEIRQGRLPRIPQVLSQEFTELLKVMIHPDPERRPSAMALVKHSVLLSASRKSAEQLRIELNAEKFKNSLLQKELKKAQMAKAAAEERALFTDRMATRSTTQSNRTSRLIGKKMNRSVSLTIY
Chain of 5'-AMP-activated protein kinase catalytic subunit alpha-2 (Homo sapiens) (P54646 whole entry, looked up): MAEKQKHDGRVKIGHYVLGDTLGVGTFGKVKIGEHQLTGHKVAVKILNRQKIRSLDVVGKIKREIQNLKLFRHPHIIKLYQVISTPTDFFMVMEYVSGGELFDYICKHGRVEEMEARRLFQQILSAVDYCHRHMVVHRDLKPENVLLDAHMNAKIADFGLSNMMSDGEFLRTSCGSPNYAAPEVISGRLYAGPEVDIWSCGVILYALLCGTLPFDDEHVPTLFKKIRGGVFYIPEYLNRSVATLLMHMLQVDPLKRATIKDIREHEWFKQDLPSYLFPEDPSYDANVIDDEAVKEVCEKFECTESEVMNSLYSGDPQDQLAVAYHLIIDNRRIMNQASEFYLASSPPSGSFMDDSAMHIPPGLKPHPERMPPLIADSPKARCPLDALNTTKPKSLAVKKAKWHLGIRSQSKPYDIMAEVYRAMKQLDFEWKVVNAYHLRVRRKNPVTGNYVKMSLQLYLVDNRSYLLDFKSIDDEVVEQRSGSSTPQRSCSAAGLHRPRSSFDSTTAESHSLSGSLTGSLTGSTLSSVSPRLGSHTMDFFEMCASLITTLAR
Chain of Tyrosine-protein kinase Fes/Fps (Homo sapiens) (P07332 whole entry): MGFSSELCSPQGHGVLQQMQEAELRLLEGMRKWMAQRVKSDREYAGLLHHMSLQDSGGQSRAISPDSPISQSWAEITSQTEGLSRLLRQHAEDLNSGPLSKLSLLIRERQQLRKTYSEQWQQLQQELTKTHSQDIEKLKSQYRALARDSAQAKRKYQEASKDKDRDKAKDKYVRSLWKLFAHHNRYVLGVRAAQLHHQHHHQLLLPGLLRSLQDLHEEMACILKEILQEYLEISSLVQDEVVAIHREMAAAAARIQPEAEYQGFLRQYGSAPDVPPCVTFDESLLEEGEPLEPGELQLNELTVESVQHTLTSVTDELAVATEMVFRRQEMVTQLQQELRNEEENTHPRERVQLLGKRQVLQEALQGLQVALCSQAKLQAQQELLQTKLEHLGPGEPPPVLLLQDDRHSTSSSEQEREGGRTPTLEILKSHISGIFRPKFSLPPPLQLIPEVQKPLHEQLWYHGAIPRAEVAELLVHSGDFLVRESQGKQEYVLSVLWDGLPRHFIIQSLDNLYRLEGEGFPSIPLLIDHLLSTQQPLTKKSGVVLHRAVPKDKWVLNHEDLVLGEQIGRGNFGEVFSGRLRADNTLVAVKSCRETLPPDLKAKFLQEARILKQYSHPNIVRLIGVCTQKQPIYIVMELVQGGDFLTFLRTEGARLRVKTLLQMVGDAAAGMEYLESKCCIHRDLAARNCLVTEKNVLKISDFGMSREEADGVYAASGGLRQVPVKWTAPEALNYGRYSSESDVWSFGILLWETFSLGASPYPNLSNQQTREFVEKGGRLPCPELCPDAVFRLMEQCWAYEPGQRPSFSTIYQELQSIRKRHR
Chain of Activin receptor type-2A (Homo sapiens) (P27037 whole entry): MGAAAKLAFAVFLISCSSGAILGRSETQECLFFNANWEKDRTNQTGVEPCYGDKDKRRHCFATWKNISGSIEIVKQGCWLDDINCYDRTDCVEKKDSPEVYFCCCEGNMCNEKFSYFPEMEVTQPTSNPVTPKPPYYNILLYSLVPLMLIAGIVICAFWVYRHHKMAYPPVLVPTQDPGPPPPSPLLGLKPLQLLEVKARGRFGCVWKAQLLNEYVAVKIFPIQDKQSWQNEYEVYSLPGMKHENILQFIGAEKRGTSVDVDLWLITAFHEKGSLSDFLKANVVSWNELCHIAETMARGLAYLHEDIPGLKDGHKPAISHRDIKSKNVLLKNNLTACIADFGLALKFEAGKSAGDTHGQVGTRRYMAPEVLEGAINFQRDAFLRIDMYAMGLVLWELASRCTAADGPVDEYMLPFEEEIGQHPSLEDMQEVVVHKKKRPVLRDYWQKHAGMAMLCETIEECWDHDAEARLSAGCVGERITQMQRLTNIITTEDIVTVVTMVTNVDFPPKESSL
Chain of Protein kinase C beta type (Homo sapiens) (P05771 2-671 limits assumed): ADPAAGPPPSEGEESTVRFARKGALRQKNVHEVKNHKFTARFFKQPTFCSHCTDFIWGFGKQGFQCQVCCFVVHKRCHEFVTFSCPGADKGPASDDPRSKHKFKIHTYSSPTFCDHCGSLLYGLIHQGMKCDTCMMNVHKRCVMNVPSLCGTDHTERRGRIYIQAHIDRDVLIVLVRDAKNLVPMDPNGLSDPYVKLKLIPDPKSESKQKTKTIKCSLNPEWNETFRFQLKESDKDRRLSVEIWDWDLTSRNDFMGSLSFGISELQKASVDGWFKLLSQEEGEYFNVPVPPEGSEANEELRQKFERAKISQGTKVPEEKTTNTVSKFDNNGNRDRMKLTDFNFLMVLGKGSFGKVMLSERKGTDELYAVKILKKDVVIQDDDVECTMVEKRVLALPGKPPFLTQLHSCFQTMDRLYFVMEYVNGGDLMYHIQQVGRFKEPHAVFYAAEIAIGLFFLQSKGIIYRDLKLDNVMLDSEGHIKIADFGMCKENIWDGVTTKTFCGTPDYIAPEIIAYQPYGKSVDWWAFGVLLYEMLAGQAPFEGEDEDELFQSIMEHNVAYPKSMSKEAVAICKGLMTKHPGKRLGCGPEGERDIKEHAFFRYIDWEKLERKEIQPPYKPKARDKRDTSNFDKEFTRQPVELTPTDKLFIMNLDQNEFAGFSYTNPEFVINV
Chain of NUAK family SNF1-like kinase 2 (Homo sapiens) (Q9H093 whole entry): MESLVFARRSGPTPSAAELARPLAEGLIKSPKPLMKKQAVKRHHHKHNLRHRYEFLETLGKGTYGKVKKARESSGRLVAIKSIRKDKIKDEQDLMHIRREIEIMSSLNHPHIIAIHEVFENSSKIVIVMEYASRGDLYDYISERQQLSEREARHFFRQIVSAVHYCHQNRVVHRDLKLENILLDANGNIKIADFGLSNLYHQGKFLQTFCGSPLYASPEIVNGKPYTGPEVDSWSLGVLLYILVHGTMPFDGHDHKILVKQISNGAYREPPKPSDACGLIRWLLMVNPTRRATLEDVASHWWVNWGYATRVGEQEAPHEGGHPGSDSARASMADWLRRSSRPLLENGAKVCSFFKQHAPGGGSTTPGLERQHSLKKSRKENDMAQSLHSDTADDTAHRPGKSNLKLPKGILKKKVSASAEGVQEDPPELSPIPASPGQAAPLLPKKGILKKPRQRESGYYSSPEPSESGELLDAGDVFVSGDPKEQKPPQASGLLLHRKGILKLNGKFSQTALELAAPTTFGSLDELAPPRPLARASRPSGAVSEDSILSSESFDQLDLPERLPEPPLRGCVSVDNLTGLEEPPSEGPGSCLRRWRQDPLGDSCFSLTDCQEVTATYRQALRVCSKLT

In the case of `C=CS(=O)(=O)Nc1ccc(Cc2ccc3ccccc3c2)cc1`, the Activity [1] is reported as “Active”, the inhibition (Homo sapiens [2]) is reported as “Active” and the inhibition (Homo sapiens [3]) is reported as -6%. For the same compound, the inhibition (Homo sapiens [4]) was 2%, the inhibition [5] was 5% and the inhibition [6] was 7%. For the same compound, the inhibition [7] was 3%, the inhibition (Homo sapiens [8]) was 15% and the inhibition [9] was 4%. For the same compound, the inhibition [10] was 16%, the inhibition [11] was 0% and the inhibition [12] was -1%. The inhibition [13] was 3%, the inhibition [14] was 5% and the inhibition [15] was -6%. The inhibition [16] was 7%, the inhibition [17] was 21% and the inhibition (Homo sapiens [18]) was 13%. It also gave an inhibition [19] of -3%, an inhibition [20] of 5% and an inhibition [21] of 0%. The inhibition [22] was -5%, the inhibition [23] was -4% and the inhibition [24] was 10%.

— ChEMBL document CHEMBL4376829, “Discovery and biological evaluation of vinylsulfonamide derivatives as highly potent, covalent TEAD autopalmitoylation inhibitors” (Eur J Med Chem, 2019)
